Measurements taken from ChEMBL document CHEMBL1201862, “PubChem BioAssay data set” (2004).
The source made the active and inactive calls.

Tests used:
[1] = viability loss in THP-1 monocytes – THP-1 cells, cytotoxicity control for Vif-APOBEC3G degradation inhibitor project, dose response (AID 1117359); format: functional; conditions: THP-1
[2] = molecular target: Glutathione-S-transferase (Schistosoma japonicum, UniProt Q26513); assay: GST-antibody interaction or FRET quenching – biochemical, TR-FRET, artefact control for Vif-APOBEC3G degradation inhibitor project, dose response (AID 1117362); format: functional
INS1 = assay: INS-1E survival protection against cytokine death – cell-based, luminescence, retest, dose response (AID 449756); format: functional; conditions: Rattus norvegicus;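 further: cell death triggered by IL-1 beta plus TNF-alpha plus IFN-gamma mixture; protective hits raise ATP signal compared with cytokine alone wells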
[3] = molecular target: T1, COUP transcription factor 2 (Homo sapiens, UniProt P24468); assay: Luminescence-based cell-based high throughput dose response assay to identify inhibitors of COUP-TFII (NR2F2).; format: functional;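 further: HEK293 cells transiently cotransfected with COUP-TFII expression vector and reporter; luciferase reporter luminescence driven by COUP-TFII from the pX2-168 reporter plasmid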
T1 sequence (P24468 whole entry): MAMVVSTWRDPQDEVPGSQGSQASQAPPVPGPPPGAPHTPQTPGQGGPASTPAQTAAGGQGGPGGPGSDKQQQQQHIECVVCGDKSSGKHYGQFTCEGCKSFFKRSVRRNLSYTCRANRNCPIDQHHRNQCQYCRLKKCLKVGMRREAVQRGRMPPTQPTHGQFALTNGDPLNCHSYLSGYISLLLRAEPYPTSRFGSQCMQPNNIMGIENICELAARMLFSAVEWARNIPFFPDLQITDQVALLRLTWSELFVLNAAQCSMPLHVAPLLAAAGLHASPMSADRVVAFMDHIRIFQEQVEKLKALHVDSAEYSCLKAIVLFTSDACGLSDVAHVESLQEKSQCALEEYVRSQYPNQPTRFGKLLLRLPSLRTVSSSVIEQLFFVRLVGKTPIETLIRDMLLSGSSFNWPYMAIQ

HEK293 = assay: EBV LMP1 TES2 canonical NF-kB signalling blockers – cell-based, HEK293, luciferase, cherry-pick, dose response (AID 588343); format: functional, Homo sapiens; conditions: Homo sapiens, HEK293
Transthyretin = Transthyretin (Homo sapiens, UniProt P02766); assay: Luminescence-based cell-based high throughput dose response assay to identify activators of Transthyretin (TTR) transcription.; format: functional
[4] = reduction of Shn3 3'UTR-driven luciferase in osteoblasts – cell-based, Clone20 osteoblasts, firefly luciferase, cherry-picked, dose response (AID 624132); format: functional;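 further: firefly luciferase luminescence from reporter carrying the Shn3 3'UTR in osteoblasts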
cells = format: functional, cell-based
[5] = Luminescence Cell-Based Dose Response HTS to Identify Inhibitors of 5'UTR Stem-Loop Driven Prion Protein mRNA Translation in H4 Neuroglioblastoma Cells. [Related pubchem assays: 1827 (Project Summary), 1813 (Primary HTS)]; format: functional
[6] = luciferase reporter signal reduction – luminescence, H4-C neuroglioblastoma cells, dose response (AID 2458); format: functional, cell-based;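 further: H4 neuroglioblastoma cells stably carrying a luciferase reporter gene fusion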
[7] = Shn3 3'UTR reporter signal decrease – cell-based, Clone20 osteoblasts, firefly luciferase, cherry-pick, set 2, Schnurri-3 inhibitor project, dose response (AID 720490); format: functional;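 further: actives lower the luminescence signal as inhibitors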
[8] = luciferase reporter signal suppression in cells – H4 neuroglioma cells, luminescence, dose response (AID 1990); format: functional, cell-based
H4 [9] = assay: Inhibitors of Prion Protein 5' UTR mRNA Measured in Cell-Based System Using Plate Reader - 2078-01_Inhibitor_Dose_DryPowder_Activity. [Related pubchem assays (depositor defined):AID488894]; format: functional; conditions: Homo sapiens
Paired box protein Pax-8 = Paired box protein Pax-8 (Homo sapiens, UniProt Q06710); assay: PAX8 transcriptional activity inhibition in RMG-I – RMG-I cells, luciferase, cherry-pick, dose response (AID 687027); format: functional, cell-based;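 further: luciferase reporter driven by Pax8 target thyroperoxidase promoter measured by SteadyGlo luminescence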
[10] = COV362 cell viability loss – plate reader, dry powder, SA12, cytotoxicity control for PAX8 inhibitor project, dose response (AID 743144); format: functional, cell-based
[11] = alpha-synuclein stem-loop luciferase translation blockers – H4 neuroglioma cells, luminescence, confirmation (AID 1988); format: functional, cell-based
[12] = alpha-synuclein stem-loop translation blockers – luminescence, H4 neuroglioblastoma cells, dose confirmation, confirmation (AID 2454); format: functional, cell-based;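 further: H4 neuroglioblastoma cells carrying an alpha-synuclein 5'UTR luciferase reporter; potency for inhibition of the luciferase signal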
[13] = PAX5 cellular inhibition readout – cell-based, plate reader, dry powder samples, selectivity assay for PAX8 inhibitor project, dose response (AID 743047); format: functional;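 further: HEK293 cells carrying a Pax5 driven CD19 promoter luciferase reporter; potency of inhibitors that lower reporter luminescence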
[14] = Luminescence-based counterscreen assay for KLF5 inhibitors: dose response cell-based high throughput screening assay to identify cytotoxic compounds using the IEC-6 intestinal epithelial cell line. [Related pubchem assays: 1700 (Primary screen.), 1834 (Confirmation screen.), 1858 (Summary AID.), 1905 (Counterscreen.)]; format: functional
H4 [15] = assay: inhibitors of control reporter signal in H4 cells – cell-based, plate reader, dry powder samples, counter-screen for prion reporter project, dose response (AID 540255); format: functional; conditions: Homo sapiens
[16] = HEK-293T cell viability reduction – luminescence, B-cell screen hits, cytotoxicity control for BCR NF-kB inhibitor project, dose response (AID 489021); format: functional, cell-based;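 further: HEK-293T cells carrying an NF-kB luciferase reporter; cells exposed to compound for about 14 hours before viability readout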
[17] = PAX8-dependent cell viability loss – plate reader, dry powder, dose response (AID 743049); format: functional, cell-based
[18] = inhibitors acting on PAX2 in cells – cell-based, plate reader, dry powder samples, selectivity assay for PAX8 inhibitor project, dose response (AID 743048); format: functional;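 further: HEK293 cells carrying a WT1 promoter luciferase reporter driven by expressed Pax2; potency is for inhibition of Pax2 driven reporter signal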
[19] = molecular target: T2, Oxysterols receptor LXR-beta (Homo sapiens, UniProt P55055); assay: LXR agonists, Gal4 luciferase reporter, dose response, counter-screen for ssDAF-12 agonist project, cell-based, luminescence, HEK293, S. stercoralis campaign (AID 720737); format: functional; conditions: read-out: IC50 (the source's name)
T2 sequence (P55055 whole entry): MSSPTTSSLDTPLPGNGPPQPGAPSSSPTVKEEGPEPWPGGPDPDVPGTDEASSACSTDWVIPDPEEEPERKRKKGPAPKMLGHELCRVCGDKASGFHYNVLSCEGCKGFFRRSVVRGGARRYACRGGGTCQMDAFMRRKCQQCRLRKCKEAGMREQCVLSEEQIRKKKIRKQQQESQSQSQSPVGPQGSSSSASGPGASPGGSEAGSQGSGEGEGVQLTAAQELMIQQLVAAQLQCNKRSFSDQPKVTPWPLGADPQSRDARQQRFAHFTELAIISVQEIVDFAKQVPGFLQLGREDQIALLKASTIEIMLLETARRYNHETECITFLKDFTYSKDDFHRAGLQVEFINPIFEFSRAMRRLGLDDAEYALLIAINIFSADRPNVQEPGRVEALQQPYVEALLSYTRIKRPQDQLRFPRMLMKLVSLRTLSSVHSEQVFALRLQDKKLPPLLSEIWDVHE

[20] = Luminescence-based cell-based high throughput dose response assay to identify activators of the DAF-12 from the parasite S. stercoralis (ssDAF-12).; format: functional
[21] = A2780 cell killing – plate reader, dry powder samples, cytotoxicity control, dose response (AID 743046); format: functional, cell-based
[22] = OVCAR-3 cell viability loss – plate reader, dry powder samples, PAX8 inhibitor project, dose response (AID 743044); format: functional, cell-based
[23] = OVCAR8 cell viability loss – plate reader, dry powder samples, PAX8 project, dose response (AID 743197); format: functional, cell-based; conditions: OVCAR-8
[24] = toxicity toward immortalized ovarian surface epithelium – cell-based, plate reader, dry powder samples, cytotoxicity control for PAX8 inhibitor project, dose response (AID 743045); format: functional
[25] = general cell-killing toxicity readout – plate reader, dry powder samples, cytotoxicity control for PAX8 inhibitor project, dose response (AID 743021); format: functional, cell-based
[26] = Trypanosoma cruzi replication inhibitors in host cells – cell-based, plate reader, dry powder samples, dose response (AID 651845); format: functional
[27] = T. cruzi growth inhibition in host cells, dose response, cell-based, plate reader, dry powder, set 2 (AID 652275); format: functional
[28] = anti-trypanosomal activity in BESM host cells – imaging, CA-I/72 strain, bovine embryo skeletal muscle, dry powder, dose response (AID 651885); format: functional, cell-based
[29] = lung carcinoma cell viability loss – CellTiter-Glo luminescence, dry powder, set 17, dose response (AID 1117284); format: functional, cell-based; conditions: A549
[30] = viability loss in A549 lung cells – cell-based, 24 h, CellTiter-Glo luminescence, cherry-picks, cytotoxicity control, dose response (AID 1053115); format: functional; conditions: A549, 24 h

Paired box protein Pax-8, sequence (Q06710 whole entry): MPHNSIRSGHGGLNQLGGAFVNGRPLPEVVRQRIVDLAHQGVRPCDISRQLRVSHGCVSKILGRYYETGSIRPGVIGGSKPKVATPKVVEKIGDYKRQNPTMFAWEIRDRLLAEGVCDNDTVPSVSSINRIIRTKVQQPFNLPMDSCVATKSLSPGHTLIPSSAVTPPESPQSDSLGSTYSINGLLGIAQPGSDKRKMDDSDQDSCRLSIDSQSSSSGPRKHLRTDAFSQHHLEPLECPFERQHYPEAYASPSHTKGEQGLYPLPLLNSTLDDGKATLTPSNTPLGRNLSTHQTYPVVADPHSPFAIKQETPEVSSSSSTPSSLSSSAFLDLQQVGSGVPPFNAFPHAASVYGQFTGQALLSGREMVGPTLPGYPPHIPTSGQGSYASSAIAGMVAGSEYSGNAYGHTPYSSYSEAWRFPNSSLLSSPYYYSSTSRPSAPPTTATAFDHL
Glutathione-S-transferase, sequence (Q26513 whole entry): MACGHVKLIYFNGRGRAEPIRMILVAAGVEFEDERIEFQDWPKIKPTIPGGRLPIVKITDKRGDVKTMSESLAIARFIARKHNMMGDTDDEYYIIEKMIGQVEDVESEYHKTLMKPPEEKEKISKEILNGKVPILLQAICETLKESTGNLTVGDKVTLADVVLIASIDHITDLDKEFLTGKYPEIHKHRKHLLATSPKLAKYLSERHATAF

## Cc1cccc2cc(-c3ccccc3)c(-c3ccccc3)c[n+]12
[1]
  CC50: 12.2 µM (active)
[2]
  IC50: 18.7 µM (active)
INS1
  AC50: 4.26 µM (active)
[3]
  IC50: 8.22 µM (active)

## COc1ccc2cc3c(N)nn(C(=O)c4ccccc4[N+](=O)[O-])c3nc2c1
HEK293
  AC50: 2.75 µM (active)
Transthyretin
  EC50: > 167 µM (inactive)

## O=C(CN1C(=O)c2ccccc2S1(=O)=O)c1ccc(Cl)cc1Cl
[4]
  AC50: 3.53 µM (active)
cells
  EC50: 0.794 µM (active)
[5]
  EC50: < 0.1 µM (active)
[6]
  EC50: 0.595 µM (active)
[7]
  AC50: 5.38 µM (active)
[8]
  EC50: 0.31 µM (active)
H4 [9]
  AC50: 0.168 µM (active)
Paired box protein Pax-8
  AC50: 2.93 µM (active)
[10]
  AC50: 93.5 µM (active)
[11]
  EC50: < 0.1 µM (active)
[12]
  EC50: 0.774 µM (active)
[13]
  AC50: 1.37 µM (active)
[14]
  IC50: > 39.8 µM (not active)
H4 [15]
  AC50: 0.456 µM (active)
[16]
  IC50: > 80 µM (inactive)
[17]
  AC50: 88.1 µM (active)
[18]
  AC50: 1.18 µM (active)

## O=C(CCN1C(=O)C2C3CCC(C3)C2C1=O)Nc1ccccc1C(F)(F)F (centres undefined)
[19]
  EC50: > 67.6 µM (inactive)
[20]
  IC50: > 67.6 µM (inactive)

## Cc1cccc(S(=O)(=O)N2C[C@@H](O)COC[C@@H]3O[C@@H](CC(=O)Nc4ccc(-c5ccccc5)cc4)CC[C@H]32)c1
[21]
  AC50: 23.2 µM (active)
[22]
  AC50: 43.4 µM (active)
[23]
  AC50: 53.1 µM (active)
Paired box protein Pax-8
  AC50: 10.7 µM (active)

## COc1ccccc1C#Cc1ccc([C@H]2[C@H](C#N)N(C(=O)C3CCC3)[C@H]2CO)cc1
[22]
  AC50: 12.6 µM (active)
[24]
  AC50: 56.5 µM (active)
[25]
  AC50: 32.8 µM (active)
[23]
  AC50: 23.4 µM (active)
Paired box protein Pax-8
  AC50: 5.55 µM (active)

## C[C@@H]1CN(C)C(=O)c2cccc(NC(=O)c3ccncc3)c2O[C@H]1CN(C)Cc1ccc(Oc2ccccc2)cc1
[26]
  AC50: 0.0381 µM (active)
[27]
  AC50: 0.00506 µM (active)
[28]
  IC50: 10 µM (inconclusive)

## C[C@H](CO)N1C[C@H](C)[C@@H](CN(C)Cc2ccc(-c3ccccc3)cc2)Oc2cc(C#C[C@@H](C)O)ccc2S1(=O)=O
[29]
  AC50: 42.5 µM (active)
[30]
  AC50: 52.6 µM (active)
